Measurements as given in patent US10670605B2, “Cysteine reactive probes and uses thereof” (The Scripps Research Institute, priority 2015, dated 2020).
Blank lines part the entries; values can stand above or below the molecule they belong to.

Legend:
Experiment in all cases: Competitive isoTOP-ABPP in situ (fragment-treated cells)
Type in all cases: cell-based
[1] = molecular target: cysteines in MDA-MB-231 and Ramos cells (Homo sapiens, UniProt Q14997); conditions: 200 μM, insitu
[2] = molecular target: T1, cysteines in MDA-MB-231 and Ramos cells (Homo sapiens, UniProt P25205)
T1 sequence (P25205 1-808): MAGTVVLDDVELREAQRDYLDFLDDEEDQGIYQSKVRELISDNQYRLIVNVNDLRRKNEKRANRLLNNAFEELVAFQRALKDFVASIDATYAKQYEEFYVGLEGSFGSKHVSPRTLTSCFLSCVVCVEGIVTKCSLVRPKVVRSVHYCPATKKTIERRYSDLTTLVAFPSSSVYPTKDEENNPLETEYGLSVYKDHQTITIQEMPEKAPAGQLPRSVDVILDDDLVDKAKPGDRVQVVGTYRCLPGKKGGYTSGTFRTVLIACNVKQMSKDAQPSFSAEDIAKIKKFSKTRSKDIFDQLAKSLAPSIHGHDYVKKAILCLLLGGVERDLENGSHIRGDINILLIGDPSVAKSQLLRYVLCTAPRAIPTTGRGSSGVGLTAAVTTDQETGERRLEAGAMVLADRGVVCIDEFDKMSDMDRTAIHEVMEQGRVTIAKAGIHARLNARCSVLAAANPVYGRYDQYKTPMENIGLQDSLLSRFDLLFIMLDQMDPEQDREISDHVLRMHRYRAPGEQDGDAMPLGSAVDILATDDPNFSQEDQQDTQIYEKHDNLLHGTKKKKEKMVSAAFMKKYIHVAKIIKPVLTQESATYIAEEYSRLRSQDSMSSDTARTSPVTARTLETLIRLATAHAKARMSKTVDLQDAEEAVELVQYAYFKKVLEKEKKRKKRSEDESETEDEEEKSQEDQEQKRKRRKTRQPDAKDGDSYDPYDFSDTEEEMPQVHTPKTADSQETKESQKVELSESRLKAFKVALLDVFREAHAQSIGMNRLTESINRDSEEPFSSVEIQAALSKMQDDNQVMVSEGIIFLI

[3] = molecular target: T2, cysteines in MDA-MB-231 and Ramos cells (Homo sapiens, UniProt P22307)
T2 sequence (P22307 1-547): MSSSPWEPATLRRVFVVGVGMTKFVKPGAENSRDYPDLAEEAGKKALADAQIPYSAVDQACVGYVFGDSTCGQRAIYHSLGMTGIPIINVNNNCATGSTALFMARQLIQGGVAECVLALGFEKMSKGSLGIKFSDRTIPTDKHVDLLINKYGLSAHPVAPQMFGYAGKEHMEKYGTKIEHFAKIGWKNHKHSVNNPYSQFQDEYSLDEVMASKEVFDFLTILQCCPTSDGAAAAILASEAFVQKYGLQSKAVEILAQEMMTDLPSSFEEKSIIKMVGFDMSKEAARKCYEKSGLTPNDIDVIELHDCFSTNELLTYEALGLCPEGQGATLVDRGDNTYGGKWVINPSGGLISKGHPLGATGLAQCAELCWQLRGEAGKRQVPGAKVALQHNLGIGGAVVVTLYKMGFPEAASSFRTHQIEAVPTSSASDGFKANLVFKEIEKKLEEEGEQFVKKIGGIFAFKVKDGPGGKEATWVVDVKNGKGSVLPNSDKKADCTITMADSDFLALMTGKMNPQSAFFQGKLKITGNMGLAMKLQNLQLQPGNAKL

[4] = molecular target: T3, cysteines in MDA-MB-231 and Ramos cells (Homo sapiens, UniProt Q9Y277)
T3 sequence (Q9Y277 1-283): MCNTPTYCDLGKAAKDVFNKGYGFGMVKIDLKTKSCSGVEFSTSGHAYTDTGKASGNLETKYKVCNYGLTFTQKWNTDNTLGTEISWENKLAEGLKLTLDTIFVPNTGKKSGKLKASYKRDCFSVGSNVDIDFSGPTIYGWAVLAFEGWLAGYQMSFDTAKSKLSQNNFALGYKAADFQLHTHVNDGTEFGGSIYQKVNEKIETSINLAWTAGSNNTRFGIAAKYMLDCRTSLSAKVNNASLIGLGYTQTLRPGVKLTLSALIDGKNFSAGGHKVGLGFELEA

[5] = molecular target: T4, cysteines in MDA-MB-231 and Ramos cells (Homo sapiens, UniProt O14879)
T4 sequence (O14879 1-490): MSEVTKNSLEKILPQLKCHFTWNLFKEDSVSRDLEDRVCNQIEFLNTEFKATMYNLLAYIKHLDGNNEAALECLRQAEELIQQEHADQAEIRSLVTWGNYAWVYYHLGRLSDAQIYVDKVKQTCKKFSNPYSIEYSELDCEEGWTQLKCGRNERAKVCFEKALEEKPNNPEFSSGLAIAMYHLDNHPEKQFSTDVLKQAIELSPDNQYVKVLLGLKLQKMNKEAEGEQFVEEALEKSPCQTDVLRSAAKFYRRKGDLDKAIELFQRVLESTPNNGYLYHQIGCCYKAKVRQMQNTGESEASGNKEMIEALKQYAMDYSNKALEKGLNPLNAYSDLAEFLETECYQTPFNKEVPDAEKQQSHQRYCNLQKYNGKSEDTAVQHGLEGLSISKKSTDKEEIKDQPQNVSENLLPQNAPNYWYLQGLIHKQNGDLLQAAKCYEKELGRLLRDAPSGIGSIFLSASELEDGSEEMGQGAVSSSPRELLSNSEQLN

[6] = molecular target: cysteines in MDA-MB-231 and Ramos cells (Homo sapiens, UniProt P12268)
[7] = molecular target: cysteines in MDA-MB-231 and Ramos cells (Homo sapiens, UniProt Q9BXW7)
[8] = molecular target: cysteines in MDA-MB-231 and Ramos cells (Homo sapiens, UniProt P38606)
cysteines in MDA-MB-231 and Ramos cells (Homo sapiens, UniProt P38606), sequence (P38606 whole entry): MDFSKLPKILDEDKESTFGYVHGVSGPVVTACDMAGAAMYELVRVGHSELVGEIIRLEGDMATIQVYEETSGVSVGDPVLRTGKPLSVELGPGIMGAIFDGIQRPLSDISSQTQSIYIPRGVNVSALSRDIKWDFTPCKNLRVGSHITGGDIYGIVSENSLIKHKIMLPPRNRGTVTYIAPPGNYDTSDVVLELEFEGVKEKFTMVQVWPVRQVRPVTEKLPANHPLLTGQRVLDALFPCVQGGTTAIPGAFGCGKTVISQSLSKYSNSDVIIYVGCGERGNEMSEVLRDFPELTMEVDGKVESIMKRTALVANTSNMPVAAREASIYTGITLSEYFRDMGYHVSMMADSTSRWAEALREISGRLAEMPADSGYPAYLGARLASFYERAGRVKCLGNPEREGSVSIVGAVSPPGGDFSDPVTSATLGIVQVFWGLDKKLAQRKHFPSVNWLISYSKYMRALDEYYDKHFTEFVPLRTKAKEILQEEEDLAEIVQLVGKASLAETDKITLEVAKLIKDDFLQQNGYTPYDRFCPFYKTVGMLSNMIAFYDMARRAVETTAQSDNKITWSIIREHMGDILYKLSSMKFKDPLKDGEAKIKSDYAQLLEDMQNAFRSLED

cysteines in MDA-MB-231 and Ramos cells (Homo sapiens, UniProt Q9BXW7), sequence (Q9BXW7 24-423): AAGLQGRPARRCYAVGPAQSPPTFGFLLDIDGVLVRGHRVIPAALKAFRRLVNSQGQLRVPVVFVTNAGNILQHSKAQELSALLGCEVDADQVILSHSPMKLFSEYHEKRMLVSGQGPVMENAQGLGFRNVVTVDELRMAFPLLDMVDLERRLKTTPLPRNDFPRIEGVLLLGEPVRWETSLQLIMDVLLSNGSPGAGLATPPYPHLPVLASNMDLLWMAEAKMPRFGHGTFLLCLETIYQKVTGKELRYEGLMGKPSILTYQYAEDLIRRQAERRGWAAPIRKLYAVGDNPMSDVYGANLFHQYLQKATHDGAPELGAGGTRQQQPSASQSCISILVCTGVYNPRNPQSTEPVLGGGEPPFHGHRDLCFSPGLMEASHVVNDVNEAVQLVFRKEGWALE
cysteines in MDA-MB-231 and Ramos cells (Homo sapiens, UniProt Q14997), sequence (Q14997 whole entry): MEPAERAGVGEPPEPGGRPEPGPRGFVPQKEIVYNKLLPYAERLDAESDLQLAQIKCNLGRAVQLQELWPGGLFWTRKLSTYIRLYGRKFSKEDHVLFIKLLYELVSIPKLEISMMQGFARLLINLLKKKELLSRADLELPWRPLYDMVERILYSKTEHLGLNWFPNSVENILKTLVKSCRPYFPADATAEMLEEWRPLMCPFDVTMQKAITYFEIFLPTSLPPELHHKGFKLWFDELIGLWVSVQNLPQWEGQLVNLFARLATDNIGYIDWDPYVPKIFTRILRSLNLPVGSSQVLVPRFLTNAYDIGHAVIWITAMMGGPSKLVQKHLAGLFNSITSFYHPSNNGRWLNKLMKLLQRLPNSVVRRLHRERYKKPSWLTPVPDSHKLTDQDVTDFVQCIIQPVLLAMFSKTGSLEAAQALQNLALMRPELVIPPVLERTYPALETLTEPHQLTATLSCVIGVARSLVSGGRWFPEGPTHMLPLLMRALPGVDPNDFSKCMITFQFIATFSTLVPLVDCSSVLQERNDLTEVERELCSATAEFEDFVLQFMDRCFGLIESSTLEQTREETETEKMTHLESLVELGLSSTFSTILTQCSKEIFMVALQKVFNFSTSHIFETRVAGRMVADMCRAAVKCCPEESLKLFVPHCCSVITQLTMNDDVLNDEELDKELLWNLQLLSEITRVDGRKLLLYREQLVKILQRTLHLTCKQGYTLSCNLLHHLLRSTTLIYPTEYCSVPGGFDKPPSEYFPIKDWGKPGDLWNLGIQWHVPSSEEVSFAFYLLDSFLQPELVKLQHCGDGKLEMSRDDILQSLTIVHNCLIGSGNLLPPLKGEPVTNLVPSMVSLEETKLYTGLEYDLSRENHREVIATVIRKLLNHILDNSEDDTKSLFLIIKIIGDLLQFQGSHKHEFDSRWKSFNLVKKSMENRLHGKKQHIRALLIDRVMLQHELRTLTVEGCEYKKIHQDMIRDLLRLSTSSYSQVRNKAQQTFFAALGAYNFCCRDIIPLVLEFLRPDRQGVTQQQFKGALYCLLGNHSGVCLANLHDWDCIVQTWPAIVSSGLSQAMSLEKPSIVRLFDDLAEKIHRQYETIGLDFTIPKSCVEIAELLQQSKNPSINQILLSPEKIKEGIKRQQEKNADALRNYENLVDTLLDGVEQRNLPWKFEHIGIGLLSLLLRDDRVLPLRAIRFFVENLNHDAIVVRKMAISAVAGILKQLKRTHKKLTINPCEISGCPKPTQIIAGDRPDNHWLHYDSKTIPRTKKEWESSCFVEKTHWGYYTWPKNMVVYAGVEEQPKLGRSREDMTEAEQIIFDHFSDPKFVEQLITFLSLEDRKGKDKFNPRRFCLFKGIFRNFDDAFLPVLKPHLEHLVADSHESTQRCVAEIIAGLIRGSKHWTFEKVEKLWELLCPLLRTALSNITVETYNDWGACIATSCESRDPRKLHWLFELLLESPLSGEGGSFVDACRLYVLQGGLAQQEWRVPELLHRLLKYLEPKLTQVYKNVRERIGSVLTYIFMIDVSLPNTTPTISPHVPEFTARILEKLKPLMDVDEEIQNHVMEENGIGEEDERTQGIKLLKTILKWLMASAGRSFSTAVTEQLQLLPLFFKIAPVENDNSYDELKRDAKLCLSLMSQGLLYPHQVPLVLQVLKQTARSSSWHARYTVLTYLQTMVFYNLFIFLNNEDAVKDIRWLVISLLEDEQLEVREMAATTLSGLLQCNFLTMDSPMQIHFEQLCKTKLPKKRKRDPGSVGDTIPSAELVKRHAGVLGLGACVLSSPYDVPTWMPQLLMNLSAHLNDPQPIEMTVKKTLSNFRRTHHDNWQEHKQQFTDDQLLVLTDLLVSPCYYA

- isoTOP-ABPP reactivity Q14997_C1840 PSME4 [1]; 231: 20.0
- isoTOP-ABPP reactivity P25205_C119 MCM3 ([2]; 200 μM, insitu, 231): 3.5
- isoTOP-ABPP reactivity P22307_C71 SCP2 ([3]; 200 μM, insitu, 231): 20.0
- isoTOP-ABPP reactivity P22307_C307 SCP2 ([3]; 200 μM, insitu, 231): 20.0
- isoTOP-ABPP reactivity P38606_C138 ATP6V1A ([8]; 200 μM, insitu, 231): 20.0
- isoTOP-ABPP reactivity O14879_C343 IFIT3 ([5]; 200 μM, insitu, 231): 2.1
- isoTOP-ABPP reactivity P12268_C140 IMPDH2 ([6]; 200 μM, insitu, 231): 0.9
- isoTOP-ABPP reactivity Q9BXW7_C392 CECR5 ([7]; 200 μM, insitu, 231): 3.2
SMILES: COc1cc2c(cc1OC)CN(C(=O)CCl)CC2 [compound 8]

- isoTOP-ABPP reactivity P25205_C119 MCM3 ([2]; 200 μM, insitu, 231): 1.9
- isoTOP-ABPP reactivity P38606_C138 ATP6V1A ([8]; 200 μM, insitu, 231): 20.0
- isoTOP-ABPP reactivity O14879_C343 IFIT3 ([5]; 200 μM, insitu, 231): 17.2
- isoTOP-ABPP reactivity P12268_C140 IMPDH2 ([6]; 200 μM, insitu, 231): 1.2
- isoTOP-ABPP reactivity P12268_C331 IMPDH2 ([6]; 200 μM, insitu, 231): 1.3
- isoTOP-ABPP reactivity Q9BXW7_C392 CECR5 ([7]; 200 μM, insitu, 231): 1.5
SMILES: O=C(CCl)N1CCC(Cc2ccccc2)CC1 [compound 9]

- isoTOP-ABPP ratio Q14997_C1840 [1]; 231: 0.9
- isoTOP-ABPP ratio P22307_C94 ([3]; 200 μM, insitu, 231): 20.0
- isoTOP-ABPP ratio Q9Y277_C65 ([4]; 200 μM, insitu, 231): 1.2
- isoTOP-ABPP ratio O14879_C343 ([5]; 200 μM, insitu, 231): 0.7
- isoTOP-ABPP ratio P12268_C140 ([6]; 200 μM, insitu, 231): 0.6
- isoTOP-ABPP ratio P12268_C331 ([6]; 200 μM, insitu, 231): 0.8
- isoTOP-ABPP ratio Q9BXW7_C392 ([7]; 200 μM, insitu, 231): 1.0
SMILES: COc1ccccc1OCCNC(=O)CCl [compound 28]

- isoTOP-ABPP ratio P25205_C119 ([2]; 200 μM, insitu, 231): 6.2
- isoTOP-ABPP ratio P22307_C71 ([3]; 200 μM, insitu, 231): 16.8
- isoTOP-ABPP ratio P22307_C94 ([3]; 200 μM, insitu, 231): 20.0
- isoTOP-ABPP ratio O14879_C343 ([5]; 200 μM, insitu, 231): 4.0
- isoTOP-ABPP ratio P12268_C140 ([6]; 200 μM, insitu, 231): 1.9
- isoTOP-ABPP ratio P12268_C331 ([6]; 200 μM, insitu, 231): 4.1
- isoTOP-ABPP ratio Q9BXW7_C392 ([7]; 200 μM, insitu, 231): 4.9
SMILES: CC1CCc2ccccc2N1C(=O)CCl (centres unmarked) [compound 45]

Further lines, the molecule ahead of its results:

SMILES: COc1ccc2c(c1)CCCN2C(=O)CCl [compound 2]
- isoTOP-ABPP reactivity Q14997_C1840 PSME4 [1]; 231: 2.8
- isoTOP-ABPP reactivity P25205_C119 MCM3 ([2]; 200 μM, insitu, 231): 3.5
- isoTOP-ABPP reactivity P22307_C71 SCP2 ([3]; 200 μM, insitu, 231): 3.2
- isoTOP-ABPP reactivity P22307_C307 SCP2 ([3]; 200 μM, insitu, 231): 20.0
- isoTOP-ABPP reactivity Q9Y277_C65 VDAC3 ([4]; 200 μM, insitu, 231): 3.3
- isoTOP-ABPP reactivity O14879_C343 IFIT3 ([5]; 200 μM, insitu, 231): 7.6
- isoTOP-ABPP reactivity P12268_C140 IMPDH2 ([6]; 200 μM, insitu, 231): 1.3
- isoTOP-ABPP reactivity P12268_C331 IMPDH2 ([6]; 200 μM, insitu, 231): 12.1
- isoTOP-ABPP reactivity Q9BXW7_C392 CECR5 ([7]; 200 μM, insitu, 231): 3.6

SMILES: Cn1cc(S(=O)(=O)N2CCOCC2)cc1C(=O)NC(=O)CCl [compound 11]
- isoTOP-ABPP ratio P25205_C119 ([2]; 100 μM in situ 231): 0.7
- isoTOP-ABPP ratio P22307_C71 ([3]; 100 μM in situ 231): 2.0
- isoTOP-ABPP ratio, cysteine P22307_C94 ([3]; 100 μM in situ 231): 3.3
- isoTOP-ABPP ratio, cysteine P22307_C307 ([3]; 100 μM in situ 231): 2.9
- isoTOP-ABPP ratio Q9Y277_C65 ([4]; 100 μM in situ 231): 1.4
- isoTOP-ABPP ratio P38606_C138 ([8]; 100 μM in situ 231): 9.2
- isoTOP-ABPP ratio O14879_C343 ([5]; 100 μM in situ 231): 0.4
- isoTOP-ABPP ratio P12268_C140 ([6]; 100 μM in situ 231): 0.6
- isoTOP-ABPP ratio P12268_C331 ([6]; 100 μM in situ 231): 1.0
- isoTOP-ABPP ratio Q9BXW7_C392 ([7]; 100 μM in situ 231): 1.1

SMILES: O=C(CCl)N1CCN(CC(=O)N2CCOCC2)CC1 [compound 29]
- isoTOP-ABPP ratio P25205_C119 ([2]; 200 μM, insitu, ramos): 1.3
- isoTOP-ABPP ratio P12268_C140 ([6]; 200 μM, insitu, ramos): 1.6
- isoTOP-ABPP ratio P12268_C331 ([6]; 200 μM, insitu, ramos): 1.3
- isoTOP-ABPP ratio Q9BXW7_C392 ([7]; 200 μM, insitu, ramos): 1.5

SMILES: C=CC(=O)N(Cc1cccnc1)c1cc(C(F)(F)F)cc(C(F)(F)F)c1 [compound 31]
- isoTOP-ABPP ratio Q14997_C1840 ([1]; ramos): 1.2
- isoTOP-ABPP ratio P25205_C119 ([2]; 200 μM, insitu, 231): 0.5
- isoTOP-ABPP ratio Q9Y277_C65 ([4]; 200 μM, insitu, ramos): 1.0
- isoTOP-ABPP ratio P38606_C138 ([8]; 200 μM, insitu, ramos): 1.7
- isoTOP-ABPP ratio O14879_C343 ([5]; 200 μM, insitu, 231): 0.9
- isoTOP-ABPP ratio P12268_C140 ([6]; 200 μM, insitu, 231): 0.6
- isoTOP-ABPP ratio P12268_C331 ([6]; 200 μM, insitu, 231): 1.0
- isoTOP-ABPP ratio P12268_C140 ([6]; 200 μM, insitu, ramos): 1.0
- isoTOP-ABPP ratio P12268_C331 ([6]; 200 μM, insitu, ramos): 1.1

SMILES: C=CC(=O)Nc1cc(F)c(N2CCN(C(=O)OC(C)(C)C)CC2)c(F)c1 [compound 38]
- isoTOP-ABPP ratio Q14997_C1840 [1]; 231: 20.0
- isoTOP-ABPP ratio P25205_C119 ([2]; 200 μM, insitu, 231): 0.9
- isoTOP-ABPP ratio Q9Y277_C65 ([4]; 200 μM, insitu, 231): 20.0
- isoTOP-ABPP ratio P38606_C138 ([8]; 200 μM, insitu, 231): 2.1
- isoTOP-ABPP ratio P12268_C140 ([6]; 200 μM, insitu, 231): 1.2
- isoTOP-ABPP ratio P12268_C331 ([6]; 200 μM, insitu, 231): 1.3
- isoTOP-ABPP ratio Q9BXW7_C392 ([7]; 200 μM, insitu, 231): 0.8

SMILES: O=C(CCl)Nc1cccc2ncccc12 [compound 51]
- isoTOP-ABPP ratio Q14997_C1840 [1]; 231: 20.0
- isoTOP-ABPP ratio P25205_C119 ([2]; 200 μM, insitu, 231): 2.6
- isoTOP-ABPP ratio P22307_C71 ([3]; 200 μM, insitu, 231): 5.6
- isoTOP-ABPP ratio P38606_C138 ([8]; 200 μM, insitu, 231): 10.6
- isoTOP-ABPP ratio O14879_C343 ([5]; 200 μM, insitu, 231): 1.3
- isoTOP-ABPP ratio P12268_C140 ([6]; 200 μM, insitu, 231): 1.0
- isoTOP-ABPP ratio Q9BXW7_C392 ([7]; 200 μM, insitu, 231): 1.1
